Data as given in patent US6114371A, “3-(cyclohexanoheteroarylidenyl)-2-indolinone protein tyrosine kinase inhibitors” (Sugen, Inc., priority 1998, dated 2000).

Tests used:
[1] = molecular target: Myc-GyrB-FGFR fusion protein; assay: Assay measuring the kinase activity of the FGF receptor (Myc-GyrB-FGFR fusion protein); format: biochemical; details: Table 5; 7 μM ATP
Protocol: The following protocol describes the reagents and procedures used to analyze protein tyrosine kinase activity of the Myc-GyrB-FGFR fusion protein.
5. Add 15 μg COS/FGFR cell lysate Myc-GyrB-FGFR sources per well in HNTG for a final volume of 100 μL per well. Incubate while shaking on a micro-liter plate shaker at room temperature for 2 hours.
9. At this point diluted Compounds/Extracts are added to the ELISA plate. Transfer 10 μL of diluted test and control wells from the polypropylene plate wells to the corresponding ELISA plate wells. Incubate while shaking on a micro-liter plate shaker at room temperature for 20 minutes.
10. Add 10 μL of 70 μM ATP diluted in kinase buffer to positive control and test wells (Final ATP concentration is 7 μM/well.) Add 10 μL of 1×kinase buffer to negative control wells. Incubate while shaking on a micro-liter plate shaker at room temperature for 15 min.
22. Read assay on Dynatech MR7000 ELISA Plate Reader.
(§1) The IC50 values were measured for several of the compounds of the invention.

HUV-EC-C cells = assay: HUV-EC-C assay, aFGF (3H-thymidine incorporation); format: cell-based, human; details: Homo sapiens, Table 9; aFGF (ECGF)-stimulated HUV-EC-C, 3H-thymidine; read-out: aFGF IC50
Protocol: The following protocol may also be used to measure a compound's activity against PDGF-R, FGF-R, VEGF, aFGF or Flk-1/KDR, all of which are naturally expressed by HUV-EC cells.
1. […] After cells have detached from the flask, add an equal volume of assay medium and transfer to a 50 mL sterile centrifuge tube (Fisher Scientific; catalogue no. 05-539-6).
1. Make up two-fold drug titrations in separate 96-well plates, generally 50 μM on down to 0 μM. Use the same assay medium as mentioned in day 0, step 2 above. Titrations are made by adding 90 μl/well of drug at 200 μM (4×the final well concentration) to the top well of a particular plate column. Since the stock drug concentration is usually 20 mM in DMSO, the 200 μM drug concentration contains 2% DMSO.
Therefore, diluent made up to 2% DMSO in assay medium (F12K+0.5% fetal bovine serum) is used as diluent for the drug titrations in order to dilute the drug but keep the DMSO concentration constant. Add this diluent to the remaining wells in the column at 60 μl/well. Take 60 μl from the 120 μl of 200 μM drug dilution in the top well of the column and mix with the 60 μl in the second well of the column. Take 60 μl from this well and mix with the 60 μl in the third well of the column, and so on until two-fold titrations are completed. When the next-to-the-last well is mixed, take 60 μl of the 120 μl in this well and discard it. Leave the last well with 60 μl of DMSO/media diluent as a non-drug-containing control. Make 9 columns of titrated drug, enough for triplicate wells each for 1) VEGF (obtained from Pepro Tech Inc., catalogue no. 100-200, 2) endothelial cell growth factor (ECGF) (also known as acidic fibroblast growth factor, or aFGF) (obtained from Boehringer Mannheim Biochemica, catalogue no. 1439 600); or, 3) human PDGF B/B (1276-956, Boehringer Mannheim, Germany) and assay media control. ECGF comes as a preparation with sodium heparin.
2. Transfer 50 μl/well of the drug dilutions to the 96-well assay plates containing the 0.8-1.0×10^4 cells/100 μl/well of the HUV-EC-C cells from day 0 and incubate ~2 h at 37° C., 5% CO2.
3. In triplicate, add 50 μl/well of […] VEGF, 20 ng/mL ECGF, or media control to each drug condition. As with the drugs, the growth factor concentrations are 4×the desired final concentration. Use the assay media from day 0 step 2 to make the concentrations of growth factors. Incubate approximately 24 hours at 37° C., 5% CO2. Each well will have 50 μl drug dilution, 50 μl growth factor or media, and 100 ul cells, =200 ul/well total. Thus the 4×concentrations of drugs and growth factors become 1× once everything has been added to the wells.
1. Add ^3 H-thymidine (Amersham; catalogue no. TRK-686) at 1 μCi/well (10 μl/well of 100 μCi/mL solution made up in RPMI media+10% heat-inactivated fetal bovine serum) and incubate ~24 h at 37° C., 5% CO2. RPMI is obtained from Gibco BRL, catalogue no. 11875-051.
1. Thaw plates and harvest with a 96-well plate harvester (Tomtec Harvester 96®) onto filter mats (Wallac; catalogue no. 1205-401); read counts on a Wallac Betaplate™ liquid scintillation counter.
as §1

PDGFr [2] = molecular target: T1, PDGFr (Homo sapiens, UniProt P09619); assay: PDGF-induced BrdU incorporation assay; format: cell-based; set-up: expressed in transfected cells; host or cells: 3T3 cell line
Protocol: (8) 3T3 cell line genetically engineered to express human PDGF-R.
Cells were seeded at 8000 cells/well in DMEM, 10% CS, 2 mM Gln in a 96 well plate. Cells were incubated overnight at 37° C. in 5% CO2.
The negative control wells received serum free DMEM with 0.1% BSA only; the positive control cells received the ligand (PDGF) but no test compound.
The absorbance of the samples were measured at 410 nm (in "dual wavelength" mode with a filter reading at 490 nm, as a reference wavelength) on a Dynatech ELISA plate reader.

lck protein kinase = molecular target: T2, lck protein kinase (Homo sapiens, UniProt P06239); assay: Biochemical lck assay - ELISA; details: Table 7; 10 μM ATP, GST-zeta substrate
T2 construct: made in house; host or cells: Schizosaccharomyces pombe strain SP200 (lysate)
Protocol: This assay is used to determine lck protein kinase activities measuring phosphorylation of GST-.zeta. as the readout.
(§2) b. Yeast transformed with lck. […] S. Pombe strain SP200 (h-s leul.32 ura4 ade210) is grown as described and transformations with pRSP expression plasmids are done by the lithium acetate method (Superti-Furga, supra). Cells are grown in the presence of 1 μM thiamine to induce expression.
2. Add 0.08 mL Kinase Reaction Mixture per well (containing 10 μl of 10×Kinase Buffer and 2 μg GST-.zeta. per well diluted with water).
(§3) 3. Add 10 μL of compound diluted in water containing 10% DMSO and pre-incubate for 15 minutes at room temperature.
4. Start kinase reaction by adding 10 μL/well of 0.1 mM ATP in water (10 μM ATP final).
The IC50 values were measured for one of the compounds of the invention.

src protein kinase = molecular target: T3, src protein kinase (Gallus gallus, UniProt P00523); assay: Biochemical src assay - ELISA; details: Table 6; 5 μM ATP, biotinylated peptide substrate
T3 construct: made in house; host or cells: Schizosaccharomyces pombe (yeast transformed with src, lysate)
Protocol: This assay is used to determine src protein kinase activity measuring phosphorylation of a biotinylated peptide as the readout.
as §2, with “h.” for “b. Yeast transformed with lck.”, “are” for “with”, “to repress expression from the nmtl promoter or in the absence of thiamine to” for “to”
2. Add 0.08 mL Kinase Reaction Mixture per well (containing 10 μL of 10×Kinase Buffer and 10 μM (final concentration) biotin-[…] per well diluted in water.
as §3
4. Start kinase reaction by adding 10 μL/well of 0.05 mM ATP in water (5 μM ATP final).
as §1

PDGFr [3] = molecular target: T1, PDGFr; assay: PDGF-R ELISA; format: cell-based; set-up: cells (U1242, obtained from Joseph Schlessinger, NYU); endogenous in cells; host or cells: U1242
Protocol: All cell culture media, glutamine, and fetal bovine serum can be purchased from Gibco Life Technologies (Grand Island, N.Y.) unless otherwise specified. […] All cell lines are routinely subcultured twice a week and are negative for mycoplasma as determined by the Mycotect method (Gibco).
For ELISA assays, cells (U1242, obtained from Joseph Schlessinger, NYU) are grown to 80-90% confluency in growth medium (MEM with 10% FBS, NEAA, 1 mM NaPyr and 2 mM GLN) and seeded in 96-well tissue culture plates in 0.5% serum at 25,000 to 30,000 cells per well. After overnight incubation in 0.5% serum-containing medium, cells are changed to serum-free medium and treated with test compound for 2 hr in a 5% CO2, 37° C. incubator. […] Lysates are incubated with shaking for 1 hour at room temperature. The plates are washed with TBST four times and then incubated with polyclonal anti-phosphotyrosine antibody at room temperature for 30 minutes. Excess anti-phosphotyrosine antibody is removed by rinsing the plate with TBST four times. Goat anti-rabbit IgG antibody is added to the ELISA plate for 30 min at room temperature followed by rinsing with TBST four more times. […] Absorbance at 410 nm with a reference wavelength of 630 nm is recorded about 15 to 30 min after ABTS addition.

FGFr = assay: FGF-induced BrdU incorporation assay; format: cell-based; details: Table 8
EGFr = EGFr (Homo sapiens, UniProt P00533); assay: EGF-induced BrdU incorporation assay; format: cell-based; details: Table 8
FLK-1 receptor = molecular target: T4, FLK-1 receptor (Mus musculus, UniProt P35918); assay: FLK-1 ELISA (kinase activity of the FLK-1 receptor in engineered cells); format: cell-based; details: Table 3; VEGF-stimulated NIH3T3 C7#3 cells; read-out: FLK-1 IC50
T4 construct: expressed in transfected cells; host or cells: NIH3T3 C7#3 cells

[4] = Table 8, BrdU incorporation, 3.8 nM PDGF, read-out: PDGFr IC50
[5] = Table 4, ligand-stimulated U1242 cells, read-out: PDGF-R IC50

T1 sequence (P09619 33-1106): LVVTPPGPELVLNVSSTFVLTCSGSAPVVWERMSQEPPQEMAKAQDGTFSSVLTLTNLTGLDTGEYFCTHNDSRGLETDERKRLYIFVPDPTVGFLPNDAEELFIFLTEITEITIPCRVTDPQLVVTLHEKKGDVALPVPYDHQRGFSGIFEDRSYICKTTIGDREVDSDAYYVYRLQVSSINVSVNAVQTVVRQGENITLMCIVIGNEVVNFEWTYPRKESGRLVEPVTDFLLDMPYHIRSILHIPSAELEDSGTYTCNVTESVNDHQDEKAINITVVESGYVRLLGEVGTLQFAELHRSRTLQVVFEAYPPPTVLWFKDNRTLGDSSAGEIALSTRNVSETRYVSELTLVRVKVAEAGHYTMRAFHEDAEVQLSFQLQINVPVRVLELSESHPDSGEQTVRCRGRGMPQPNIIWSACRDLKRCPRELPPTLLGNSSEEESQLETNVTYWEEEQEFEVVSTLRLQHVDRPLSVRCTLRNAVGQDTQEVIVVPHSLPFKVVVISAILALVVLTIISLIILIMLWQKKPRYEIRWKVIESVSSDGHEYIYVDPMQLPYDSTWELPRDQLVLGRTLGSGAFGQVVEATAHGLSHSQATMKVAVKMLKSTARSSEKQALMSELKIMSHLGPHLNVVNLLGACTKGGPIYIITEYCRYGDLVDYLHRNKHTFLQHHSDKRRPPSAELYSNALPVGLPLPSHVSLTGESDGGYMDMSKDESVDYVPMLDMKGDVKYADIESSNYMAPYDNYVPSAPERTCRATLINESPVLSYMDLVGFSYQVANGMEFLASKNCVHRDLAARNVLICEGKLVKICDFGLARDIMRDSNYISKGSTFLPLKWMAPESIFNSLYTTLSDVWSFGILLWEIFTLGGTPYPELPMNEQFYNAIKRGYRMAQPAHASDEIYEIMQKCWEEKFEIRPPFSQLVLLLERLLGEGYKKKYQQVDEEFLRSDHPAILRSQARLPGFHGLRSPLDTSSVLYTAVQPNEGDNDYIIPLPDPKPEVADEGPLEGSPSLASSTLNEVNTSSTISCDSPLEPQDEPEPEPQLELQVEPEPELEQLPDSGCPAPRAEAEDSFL
T4 sequence (P35918 20-1345): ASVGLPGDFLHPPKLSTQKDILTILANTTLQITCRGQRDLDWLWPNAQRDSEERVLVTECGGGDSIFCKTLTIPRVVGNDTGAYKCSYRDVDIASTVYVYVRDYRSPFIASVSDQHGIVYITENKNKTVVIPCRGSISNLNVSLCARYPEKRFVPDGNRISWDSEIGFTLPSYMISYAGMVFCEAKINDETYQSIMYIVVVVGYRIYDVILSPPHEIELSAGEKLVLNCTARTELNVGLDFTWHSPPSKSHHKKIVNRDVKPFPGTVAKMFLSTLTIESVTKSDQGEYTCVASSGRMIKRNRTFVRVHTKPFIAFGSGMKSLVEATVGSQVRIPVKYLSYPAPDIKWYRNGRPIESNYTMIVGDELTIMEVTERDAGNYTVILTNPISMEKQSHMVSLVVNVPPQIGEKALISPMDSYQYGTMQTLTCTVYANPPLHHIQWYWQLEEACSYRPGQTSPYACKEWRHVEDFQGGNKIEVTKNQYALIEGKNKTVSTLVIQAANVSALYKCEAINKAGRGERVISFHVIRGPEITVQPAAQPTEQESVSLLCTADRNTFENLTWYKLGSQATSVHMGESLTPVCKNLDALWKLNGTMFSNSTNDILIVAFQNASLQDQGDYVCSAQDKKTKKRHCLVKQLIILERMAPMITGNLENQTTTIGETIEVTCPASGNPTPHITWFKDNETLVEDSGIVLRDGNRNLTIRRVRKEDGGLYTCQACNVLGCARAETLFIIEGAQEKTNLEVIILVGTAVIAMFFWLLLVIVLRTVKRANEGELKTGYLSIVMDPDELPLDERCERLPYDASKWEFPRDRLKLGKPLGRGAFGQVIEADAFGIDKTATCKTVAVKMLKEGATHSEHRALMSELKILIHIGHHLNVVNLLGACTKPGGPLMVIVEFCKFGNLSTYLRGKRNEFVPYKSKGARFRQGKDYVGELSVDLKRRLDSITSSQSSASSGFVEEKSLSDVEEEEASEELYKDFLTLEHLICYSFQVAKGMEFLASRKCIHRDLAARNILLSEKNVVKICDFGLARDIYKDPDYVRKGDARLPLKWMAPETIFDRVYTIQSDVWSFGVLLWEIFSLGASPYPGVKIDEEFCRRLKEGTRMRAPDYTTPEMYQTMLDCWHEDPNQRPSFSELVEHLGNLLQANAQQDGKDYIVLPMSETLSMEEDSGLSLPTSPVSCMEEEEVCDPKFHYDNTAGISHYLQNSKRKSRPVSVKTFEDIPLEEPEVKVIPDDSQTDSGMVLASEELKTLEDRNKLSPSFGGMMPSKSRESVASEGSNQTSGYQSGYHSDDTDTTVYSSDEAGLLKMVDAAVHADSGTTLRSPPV
EGFr, sequence (P00533 25-1210): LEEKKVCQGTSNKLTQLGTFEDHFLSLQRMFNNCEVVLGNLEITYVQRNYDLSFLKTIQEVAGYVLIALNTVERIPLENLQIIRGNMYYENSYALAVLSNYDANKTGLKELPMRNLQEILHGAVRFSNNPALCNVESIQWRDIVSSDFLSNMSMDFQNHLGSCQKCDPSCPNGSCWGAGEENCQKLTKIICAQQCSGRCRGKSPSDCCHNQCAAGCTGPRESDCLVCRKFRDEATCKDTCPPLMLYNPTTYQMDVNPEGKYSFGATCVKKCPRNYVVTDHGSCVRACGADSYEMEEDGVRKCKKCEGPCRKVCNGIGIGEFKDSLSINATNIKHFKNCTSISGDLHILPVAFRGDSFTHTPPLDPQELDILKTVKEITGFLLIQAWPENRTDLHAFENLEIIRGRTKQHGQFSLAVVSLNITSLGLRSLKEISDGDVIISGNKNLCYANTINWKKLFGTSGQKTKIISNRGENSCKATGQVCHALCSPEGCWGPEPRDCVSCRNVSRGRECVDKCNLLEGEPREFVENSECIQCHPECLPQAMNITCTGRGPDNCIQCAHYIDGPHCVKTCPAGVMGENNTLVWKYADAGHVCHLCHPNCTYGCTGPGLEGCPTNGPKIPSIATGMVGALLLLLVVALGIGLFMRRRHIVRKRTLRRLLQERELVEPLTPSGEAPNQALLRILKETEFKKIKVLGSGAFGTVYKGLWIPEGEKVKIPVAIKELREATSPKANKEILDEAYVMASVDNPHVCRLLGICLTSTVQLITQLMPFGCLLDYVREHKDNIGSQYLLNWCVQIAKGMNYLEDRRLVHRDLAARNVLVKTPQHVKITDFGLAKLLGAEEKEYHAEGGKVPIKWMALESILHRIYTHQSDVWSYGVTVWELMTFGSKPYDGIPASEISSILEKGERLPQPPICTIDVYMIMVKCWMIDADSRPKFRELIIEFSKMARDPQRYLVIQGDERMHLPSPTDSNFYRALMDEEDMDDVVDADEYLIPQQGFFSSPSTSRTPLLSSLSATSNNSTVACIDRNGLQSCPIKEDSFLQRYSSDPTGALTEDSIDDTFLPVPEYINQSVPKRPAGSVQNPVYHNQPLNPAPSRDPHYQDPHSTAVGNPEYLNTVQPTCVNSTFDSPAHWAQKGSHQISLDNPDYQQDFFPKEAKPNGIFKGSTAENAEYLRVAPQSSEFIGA
T2 sequence (P06239 whole entry): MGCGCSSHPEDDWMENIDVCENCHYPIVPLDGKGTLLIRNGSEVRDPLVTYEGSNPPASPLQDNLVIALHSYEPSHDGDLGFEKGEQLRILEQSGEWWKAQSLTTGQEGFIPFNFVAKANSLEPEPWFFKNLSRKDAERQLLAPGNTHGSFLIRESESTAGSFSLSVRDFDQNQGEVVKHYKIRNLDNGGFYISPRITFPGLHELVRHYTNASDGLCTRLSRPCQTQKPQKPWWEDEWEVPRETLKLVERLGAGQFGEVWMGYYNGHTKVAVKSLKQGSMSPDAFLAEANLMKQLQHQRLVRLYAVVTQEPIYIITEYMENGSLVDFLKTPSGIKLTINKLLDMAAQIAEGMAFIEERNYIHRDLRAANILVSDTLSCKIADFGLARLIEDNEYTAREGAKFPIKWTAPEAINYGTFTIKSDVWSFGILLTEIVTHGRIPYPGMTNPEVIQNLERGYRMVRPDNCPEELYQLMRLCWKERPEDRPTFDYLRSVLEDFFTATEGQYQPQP

| SMILES | IC50 [1] [µM] | IC50 (HUV-EC-C cells) [µM] | IC50 (PDGFr [2]; [4]) [µM] | IC50 (lck protein kinase) [µM] | IC50 (src protein kinase) [µM] | IC50 (PDGFr [3]; [5]) [µM] | IC50 (FGFr) [µM] | IC50 (EGFr) [µM] | IC50 (PDGFr [2]) [µM] | IC50 (PDGFr [3]) [µM] | IC50 (FLK-1 receptor) [µM] |
| --- | --- | --- | --- | --- | --- | --- | --- | --- | --- | --- | --- |
| CC(=O)c1ccc2c(c1)C(=Cc1cc3c([nH]1)CCCC3)C(=O)N2 [5-acetyl-3-(4,5,6,7-tetrahydro-1H-indol-2-ylmethylene)-1,3-dihydro-indol-2-one] | > 20 | 28.8 | > 0.07 | > 100 | 17.8 | > 100 | > 50 | 36.5 |  |  |  |
| COc1ccccc1-c1ccc2c(c1)NC(=O)C2=Cc1[nH]c2c(c1C)CCCC2 [6-(2-methoxyphenyl)-3-(3-methyl-4,5,6,7-tetrahydro-1H-indol-2-ylmethylene)-1,3-dihydro-indol-2-one] | > 100 | > 12.5 | > 50 |  |  | 95.7 | > 50 | > 50 |  |  |  |
| COc1ccccc1-c1ccc2c(c1)NC(=O)C2=Cc1cc2c([nH]1)CCCC2 [6-(2-methoxyphenyl)-3-(4,5,6,7-tetrahydro-1H-indol-2-ylmethylene)-1,3-dihydro-indol-2-one] | > 100 | 14.6 |  |  |  |  | 43.6 | 34.1 | 1.06 | 12.3 |  |
| CCOc1cccc(-c2ccc3c(c2)NC(=O)C3=Cc2cc3c([nH]2)CCCC3)c1 [6-(3-ethoxyphenyl)-3-(4,5,6,7-tetrahydro-1H-indol-2-ylmethylene)-1,3-dihydro-indol-2-one] | > 20 | > 25 | > 50 |  |  | > 100 | > 50 | > 50 |  |  |  |
| COc1cccc(-c2ccc3c(c2)NC(=O)C3=Cc2[nH]c3c(c2C)CCCC3)c1 [6-(3-methoxyphenyl)-3-(3-methyl-4,5,6,7-tetrahydro-1H-indol-2-ylmethylene)-1,3-dihydro-indol-2-one] | > 20 |  |  |  |  | 5.83 |  |  |  |  | > 5 |
| COc1cccc(-c2ccc3c(c2)NC(=O)C3=Cc2cc3c([nH]2)CCCC3)c1 [6-(3-methoxyphenyl)-3-(4,5,6,7-tetrahydro-1H-indol-2-ylmethylene)-1,3-dihydro-indol-2-one] |  | > 50 | > 50 |  |  | > 100 | > 50 | 31.8 |  |  | > 20 |
| COc1ccc(-c2ccc3c(c2)NC(=O)C3=Cc2[nH]c3c(c2C)CCCC3)cc1 [6-(4-methoxyphenyl)-3-(3-methyl-4,5,6,7-tetrahydro-1H-indol-2-ylmethylene)-1,3-dihydro-indol-2-one] | > 100 | > 50 | > 50 |  |  | > 100 | > 50 | > 50 |  |  |  |
| COc1ccc(-c2ccc3c(c2)NC(=O)C3=Cc2cc3c([nH]2)CCCC3)cc1 [6-(4-methoxyphenyl)-3-(4,5,6,7-tetrahydro-1H-indol-2-ylmethylene)-1,3-dihydro-indol-2-one] | > 100 | > 12.5 |  |  |  |  | > 50 | > 50 | > 50 | 94 |  |
| Cc1c(C=C2C(=O)Nc3cc(Br)ccc32)[nH]c2c1CCCC2 [6-bromo-3-(3-methyl-4,5,6,7-tetrahydro-1H-indol-2-ylmethylene)-1,3-dihydro-indol-2-one] | > 20 |  |  |  |  | 40 |  |  |  |  | 2.19 |
| O=C1Nc2cc(Br)ccc2C1=Cc1cc2c([nH]1)CCCC2 [6-bromo-3-(4,5,6,7-tetrahydro-1H-indol-2-ylmethylene)-1,3-dihydro-indol-2-one] | > 20 |  |  |  |  | > 100 |  |  |  |  |  |
| O=C1Nc2cc(Cl)ccc2C1=Cc1cc2c([nH]1)CCCC2 [6-chloro-3-(4,5,6,7-tetrahydro-1H-indol-2-ylmethylene)-1,3-dihydro-indol-2-one] | > 20 |  |  |  |  | > 100 |  |  |  |  |  |
| O=C1Nc2cc(O)ccc2C1=Cc1cc2c([nH]1)CCCC2 [6-hydroxy-3-(4,5,6,7-tetrahydro-1H-indol-2-ylmethylene)-1,3-dihydro-indol-2-one] |  |  | 0.51 |  | 21 | 47.2 | 6.21 | 12.6 |  |  | 17.1 |
| COc1ccc2c(c1)NC(=O)C2=Cc1cc2c([nH]1)CCCC2 [6-methoxy-3-(4,5,6,7-tetrahydro-1H-indol-2-ylmethylene)-1,3-dihydro-indol-2-one] |  |  |  |  |  |  | > 50 | > 50 |  |  |  |
| O=C1Nc2cc(-c3ccccc3)ccc2C1=Cc1cc2c([nH]1)CCCC2 [6-phenyl-3-(4,5,6,7-tetrahydro-1H-indol-2-ylmethylene)-1,3-dihydro-indol-2-one] | > 100 | > 12.5 | > 50 |  |  | 70.6 | > 50 | > 50 |  |  |  |
| Cc1cc(Br)c2c(c1)C(=Cc1cc3c([nH]1)CCCC3)C(=O)N2 [7-bromo-5-methyl-3-(4,5,6,7-tetrahydro-1H-indol-2-ylmethylene)-1,3-dihydro-indol-2-one] |  |  |  |  |  | 5.56 |  |  |  |  | > 2.5 |
